In ChEMBL document CHEMBL2029275, “Structure-activity relationship of a series of non peptidic RGD integrin antagonists targeting α5β1: part 2” (Bioorg Med Chem Lett, 2012):

Legend:
Integrin alpha-5/beta-1 [1] = molecular target: T1, Integrin alpha-5/beta-1 (Homo sapiens, UniProt P05556+P08648); test: Antagonist activity at integrin alpha5beta1 in human K562 cells assessed as inhibition of cell adhesion in presence of human serum albumin; assay type: functional, cell-based
Rattus norvegicus = organism: Rattus norvegicus; test: Free drug level in rat; assay type: ADME, organism-based; details: in vivo
[2] = molecular target: Fibronectin receptor (Integrin alpha-5/beta-1 and alpha-V/beta-3) (Homo sapiens, UniProt P05106+P05556+P06756+P08648); test: Antagonist activity at integrin alphavbeta3alpha5beta1 in human A375M cells assessed as inhibition of cell adhesion to fibronectin in presence of Mg2+; assay type: functional, cell-based
Integrin alpha-5/beta-1 [3] = molecular target: T1, Integrin alpha-5/beta-1; test: Antagonist activity at integrin alpha5beta1 in human K562 cells assessed as inhibition of cell adhesion; assay type: functional, cell-based
Integrin alpha-V/beta-3 = Integrin alpha-V/beta-3 (Homo sapiens, UniProt P05106+P06756); test: Antagonist activity at integrin alphaVbeta3 in human A375M cells assessed as cell adhesion to fibrinogen in presence of Mg2+; assay type: functional, cell-based
A375M = test: Selectivity ratio of IC50 for integrin alphavbeta3alpha5beta1-mediated human A375M cells adhesion to fibronectin in absence of MK-0429 to IC50 for integrin alpha5beta1-mediated human A375M cells adhesion to fibronectin in presence of MK-0429; assay type: cell-based
Integrin alpha-5/beta-1 [4] = molecular target: T1, Integrin alpha-5/beta-1; test: Binding affinity to integrin alpha5beta1; assay type: protein-complex assay
Integrin alpha-5/beta-1 [5] = molecular target: T1, Integrin alpha-5/beta-1; test: Antagonist activity at integrin alpha5beta1 in human A375M cells assessed as inhibition of cell adhesion in presence of Mg2+ and MK-0429; assay type: functional, cell-based
Homo sapiens = organism: Homo sapiens; test: Free drug level in human; assay type: ADME, organism-based; details: in vivo

T1 sequence (P05556 21-798 limits assumed): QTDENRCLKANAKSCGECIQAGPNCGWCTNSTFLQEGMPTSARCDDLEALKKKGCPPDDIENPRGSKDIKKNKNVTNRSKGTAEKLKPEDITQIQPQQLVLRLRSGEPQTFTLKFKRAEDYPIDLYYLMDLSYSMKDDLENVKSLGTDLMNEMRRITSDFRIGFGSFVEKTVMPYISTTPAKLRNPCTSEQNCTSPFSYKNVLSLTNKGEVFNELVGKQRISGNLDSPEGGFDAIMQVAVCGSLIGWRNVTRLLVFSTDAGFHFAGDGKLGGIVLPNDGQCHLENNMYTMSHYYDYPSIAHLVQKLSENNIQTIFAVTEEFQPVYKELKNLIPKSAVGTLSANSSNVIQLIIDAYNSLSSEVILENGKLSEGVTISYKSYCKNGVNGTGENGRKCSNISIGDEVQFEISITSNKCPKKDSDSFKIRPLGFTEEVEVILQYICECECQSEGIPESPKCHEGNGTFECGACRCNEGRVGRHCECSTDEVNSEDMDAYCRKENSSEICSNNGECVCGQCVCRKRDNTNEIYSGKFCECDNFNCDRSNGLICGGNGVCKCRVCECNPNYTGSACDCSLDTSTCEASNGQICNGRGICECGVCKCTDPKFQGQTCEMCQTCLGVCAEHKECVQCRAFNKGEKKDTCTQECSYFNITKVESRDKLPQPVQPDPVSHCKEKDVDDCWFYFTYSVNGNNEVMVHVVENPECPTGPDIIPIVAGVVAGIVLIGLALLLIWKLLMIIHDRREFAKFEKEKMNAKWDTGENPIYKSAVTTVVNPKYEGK
T1 sequence (P08648 42-894 limits assumed): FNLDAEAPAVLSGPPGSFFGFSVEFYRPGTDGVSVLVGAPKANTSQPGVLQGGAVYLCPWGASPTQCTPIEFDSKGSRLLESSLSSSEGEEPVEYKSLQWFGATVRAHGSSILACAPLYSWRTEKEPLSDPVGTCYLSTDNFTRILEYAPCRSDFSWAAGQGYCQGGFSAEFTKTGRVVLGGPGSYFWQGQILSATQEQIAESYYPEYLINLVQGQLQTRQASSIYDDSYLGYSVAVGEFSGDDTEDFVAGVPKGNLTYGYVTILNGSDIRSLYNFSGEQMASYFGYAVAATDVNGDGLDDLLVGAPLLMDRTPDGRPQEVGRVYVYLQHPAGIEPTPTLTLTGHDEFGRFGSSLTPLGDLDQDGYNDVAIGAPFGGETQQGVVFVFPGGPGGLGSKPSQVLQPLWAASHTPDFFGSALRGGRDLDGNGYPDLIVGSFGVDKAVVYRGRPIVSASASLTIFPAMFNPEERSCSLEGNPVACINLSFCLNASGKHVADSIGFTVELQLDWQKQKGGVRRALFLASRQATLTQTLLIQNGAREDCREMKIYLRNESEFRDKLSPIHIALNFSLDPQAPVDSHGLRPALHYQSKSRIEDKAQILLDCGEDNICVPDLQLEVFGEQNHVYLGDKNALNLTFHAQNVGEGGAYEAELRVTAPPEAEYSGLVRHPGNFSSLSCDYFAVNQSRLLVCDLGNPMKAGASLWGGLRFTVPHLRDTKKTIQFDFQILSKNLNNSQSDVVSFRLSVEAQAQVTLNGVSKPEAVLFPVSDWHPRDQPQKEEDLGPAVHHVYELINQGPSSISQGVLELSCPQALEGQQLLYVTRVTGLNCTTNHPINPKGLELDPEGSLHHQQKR
T1 sequence (P08648 895-1049 limits assumed): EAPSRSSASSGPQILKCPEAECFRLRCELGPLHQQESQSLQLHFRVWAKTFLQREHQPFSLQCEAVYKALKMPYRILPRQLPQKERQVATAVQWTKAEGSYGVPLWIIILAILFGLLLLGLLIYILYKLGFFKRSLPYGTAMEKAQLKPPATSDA
Sequence of Integrin alpha-V/beta-3 (P05106 27-788 limits assumed): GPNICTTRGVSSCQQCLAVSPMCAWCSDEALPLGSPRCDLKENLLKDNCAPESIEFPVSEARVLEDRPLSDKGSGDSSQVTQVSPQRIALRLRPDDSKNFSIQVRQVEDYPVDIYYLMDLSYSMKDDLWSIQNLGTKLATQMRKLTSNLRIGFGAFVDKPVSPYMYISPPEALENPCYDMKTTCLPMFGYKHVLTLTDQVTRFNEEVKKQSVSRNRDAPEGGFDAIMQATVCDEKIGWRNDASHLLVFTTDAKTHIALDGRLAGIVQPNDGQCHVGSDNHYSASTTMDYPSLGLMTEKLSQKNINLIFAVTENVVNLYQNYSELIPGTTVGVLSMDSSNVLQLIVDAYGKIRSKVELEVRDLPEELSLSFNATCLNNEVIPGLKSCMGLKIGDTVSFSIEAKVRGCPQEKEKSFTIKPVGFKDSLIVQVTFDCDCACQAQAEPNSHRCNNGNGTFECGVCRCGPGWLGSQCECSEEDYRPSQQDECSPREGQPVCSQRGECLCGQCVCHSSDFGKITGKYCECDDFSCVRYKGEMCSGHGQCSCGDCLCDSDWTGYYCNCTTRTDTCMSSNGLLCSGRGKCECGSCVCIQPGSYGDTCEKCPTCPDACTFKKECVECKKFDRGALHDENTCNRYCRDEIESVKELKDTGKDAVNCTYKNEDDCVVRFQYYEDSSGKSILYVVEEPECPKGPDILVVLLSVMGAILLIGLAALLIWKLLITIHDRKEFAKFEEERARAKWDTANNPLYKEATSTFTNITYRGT
Sequence of Integrin alpha-V/beta-3 (P06756 31-889 limits assumed): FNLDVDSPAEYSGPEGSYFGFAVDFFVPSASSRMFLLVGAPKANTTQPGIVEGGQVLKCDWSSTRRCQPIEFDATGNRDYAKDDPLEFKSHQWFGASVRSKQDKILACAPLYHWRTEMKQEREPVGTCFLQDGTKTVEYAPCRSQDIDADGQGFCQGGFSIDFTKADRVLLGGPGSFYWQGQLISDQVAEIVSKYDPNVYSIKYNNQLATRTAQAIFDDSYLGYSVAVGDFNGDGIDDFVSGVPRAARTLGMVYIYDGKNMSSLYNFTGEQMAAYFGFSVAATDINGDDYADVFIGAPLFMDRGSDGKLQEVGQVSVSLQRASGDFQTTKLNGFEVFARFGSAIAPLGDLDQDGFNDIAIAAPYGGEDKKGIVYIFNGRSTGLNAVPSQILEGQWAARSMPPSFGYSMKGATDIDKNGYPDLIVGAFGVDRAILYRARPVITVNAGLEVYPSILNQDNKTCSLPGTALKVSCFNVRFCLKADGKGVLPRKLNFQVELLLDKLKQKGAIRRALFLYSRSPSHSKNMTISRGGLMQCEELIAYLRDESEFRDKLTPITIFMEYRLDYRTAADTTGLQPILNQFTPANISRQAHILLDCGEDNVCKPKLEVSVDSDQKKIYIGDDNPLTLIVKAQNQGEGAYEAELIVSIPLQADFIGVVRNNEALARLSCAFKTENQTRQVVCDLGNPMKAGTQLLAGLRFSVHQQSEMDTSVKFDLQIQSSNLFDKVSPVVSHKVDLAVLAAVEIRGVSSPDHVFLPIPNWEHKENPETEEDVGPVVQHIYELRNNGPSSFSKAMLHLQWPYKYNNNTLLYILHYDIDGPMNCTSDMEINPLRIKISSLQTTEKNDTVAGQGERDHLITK
Sequence of Integrin alpha-V/beta-3 (P06756 891-1048 limits assumed): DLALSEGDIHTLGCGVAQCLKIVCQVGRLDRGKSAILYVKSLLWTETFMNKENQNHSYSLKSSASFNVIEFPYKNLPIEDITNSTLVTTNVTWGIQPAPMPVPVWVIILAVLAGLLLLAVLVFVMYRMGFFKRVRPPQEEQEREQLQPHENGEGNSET

Compound | IC50 (Integrin alpha-5/beta-1 [1]) | Drug uptake(free) (Rattus norvegicus) | IC50 [2] | IC50 (Integrin alpha-5/beta-1 [3]) | IC50 (Integrin alpha-V/beta-3) | IC50 (Integrin alpha-5/beta-1 [4]) | IC50 (Integrin alpha-5/beta-1 [5]) | Drug uptake(free) (Homo sapiens) | Ratio IC50 (A375M)
CNc1cccc(CCOc2ccc(C[C@H](NC(=O)c3c(C)noc3C)C(=O)O)cc2)n1 | – | 3.8% | – | – | – | – | – | – | –
CNc1cccc(CCCc2ccc(C[C@H](NC(=O)c3c(Cl)cccc3Cl)C(=O)O)nc2)n1 | – | – | – | 110 nM | – | 9 nM | – | – | –
CNc1cccc(CCCc2ccc(C[C@H](NC(=O)c3c(Cl)cccc3Cl)C(=O)O)s2)n1 | – | – | 800 nM | – | 790 nM | – | 180 nM | – | 4.4
O=C(N[C@@H](Cc1cccc(OCCNc2ccccn2)c1)C(=O)O)c1c(Cl)cccc1Cl | – | – | – | > 290000 nM | – | 5900 nM | – | – | –
O=C(N[C@@H](Cc1cccc(OCCCCNc2ccccn2)c1)C(=O)O)c1c(Cl)cccc1Cl | – | – | – | 83000 nM | – | 1900 nM | – | – | –
CNc1cccc(CCOc2ccc(C[C@H](NC(=O)c3ccc(F)cc3OC)C(=O)O)cc2)n1 | > 100000 nM | – | 8300 nM | 820 nM | 8300 nM | 130 nM | 6500 nM | – | 1.3
CNc1cccc(CCOc2csc(C[C@H](NC(=O)c3c(Cl)cccc3Cl)C(=O)O)c2)n1 | – | – | – | 510 nM | – | 110 nM | – | – | –
CNc1cccc(CCOc2ccc(C[C@H](NC(=O)c3ccccc3Cl)C(=O)O)cc2)n1 | > 26000 nM | 0.5% | 540 nM | 42 nM | 520 nM | 3 nM | 240 nM | 0.4% | 2.2
CNc1cccc(CCOc2ccc(C[C@H](NC(=O)c3c(Cl)cccc3Cl)C(=O)O)cc2F)n1 | – | – | 330 nM | 47 nM | 290 nM | 2 nM | 76 nM | – | 4.3
CNc1cccc(CCCc2ccc(C[C@H](NC(=O)c3c(Cl)cccc3Cl)C(=O)O)cn2)n1 | – | – | – | 76 nM | – | 5 nM | – | – | –
COc1ccc([C@H](CC(=O)O)N2CCN(CCCc3ccc4c(n3)NCCC4)C2=O)cn1 | – | – | 810 nM | 4600 nM | 0.3 nM | – | 2200 nM | – | 0.4
CNc1cccc(CCOc2ccc(C[C@H](NC(=O)c3ccccc3)C(=O)O)cc2)n1 | – | – | 7400 nM | 430 nM | 6700 nM | 49 nM | 5400 nM | – | 1.4
O=C(N[C@@H](Cc1ccc(OCCNc2ccccn2)cc1)C(=O)O)c1c(Cl)cccc1Cl | – | – | – | 2500 nM | – | 82 nM | – | – | –
CNc1cccc(CCCc2csc(C[C@H](NC(=O)c3c(Cl)cccc3Cl)C(=O)O)c2)n1 | – | – | – | 400 nM | – | 180 nM | – | – | –
CNc1cccc(CCCc2ccc(C[C@H](NC(=O)c3c(Cl)cccc3Cl)C(=O)O)cc2)n1 | – | – | – | 46 nM | – | 8 nM | – | – | –
CNc1cccc(CCOc2ccc(C[C@H](NC(=O)C3CCCCC3C)C(=O)O)cc2)n1 (stereo partly specified) | 29000 nM | 0.9% | 960 nM | 71 nM | 960 nM | – | 420 nM | – | 2.3
CNc1cccc(CCOc2ccc(C[C@H](NC(=O)c3sccc3Cl)C(=O)O)cc2)n1 | 36000 nM | 0.2% | 2900 nM | 52 nM | 2900 nM | – | 2700 nM | 0.1% | 1.1
CNc1cccc(CCOc2ccc(C[C@H](NC(=O)c3c(Cl)cccc3Cl)C(=O)O)cc2C)n1 | – | – | 640 nM | 81 nM | 600 nM | 3 nM | 180 nM | – | 3.6
O=C(N[C@@H](Cc1ccc(OCCCNc2ccccn2)cc1)C(=O)O)c1c(Cl)cccc1Cl | – | – | 2500 nM | 120 nM | 2600 nM | 11 nM | 610 nM | – | 4.2
O=C(N[C@@H](Cc1cccc(OCCCNc2ccccn2)c1)C(=O)O)c1c(Cl)cccc1Cl | – | – | – | 20000 nM | – | – | – | – | –
O=C(N[C@@H](Cc1ccc2oc(CCNc3ccccn3)cc2c1)C(=O)O)c1c(Cl)cccc1Cl | – | – | – | 4000 nM | – | 890 nM | – | – | –
CNc1cccc(CCOc2c(C)cc(C[C@H](NC(=O)c3c(Cl)cccc3Cl)C(=O)O)cc2C)n1 | – | – | 8800 nM | 610 nM | 8800 nM | 21 nM | 5800 nM | – | 1.5
CNc1cccc(CCOc2ccc(C[C@H](NC(=O)c3c(Cl)cccc3Cl)C(=O)O)cn2)n1 | – | – | 1200 nM | 110 nM | 1200 nM | 6 nM | 570 nM | – | 2.1

Second part, led by results:

IC50 (Integrin alpha-5/beta-1 [1]) | Drug uptake(free) (Rattus norvegicus) | IC50 [2] | IC50 (Integrin alpha-5/beta-1 [3]) | IC50 (Integrin alpha-V/beta-3) | IC50 (Integrin alpha-5/beta-1 [4]) | IC50 (Integrin alpha-5/beta-1 [5]) | Drug uptake(free) (Homo sapiens) | Compound | Ratio IC50 (A375M)
24000 nM | 0.5% | 510 nM | 36 nM | 510 nM | 9 nM | 470 nM | – | CNc1cccc(CCOc2ccc(C[C@H](NC(=O)c3ccc(F)cc3C)C(=O)O)cc2)n1 | 1.1
5000 nM | 0.4% | 340 nM | 24 nM | 340 nM | 4 nM | 200 nM | – | CCc1cc(F)ccc1C(=O)N[C@@H](Cc1ccc(OCCc2cccc(NC)n2)cc1)C(=O)O | 1.7
11000 nM | 0.3% | 440 nM | 33 nM | 440 nM | 2 nM | 210 nM | 0.2% | CNc1cccc(CCOc2ccc(C[C@H](NC(=O)c3ccc(F)cc3Cl)C(=O)O)cc2)n1 | 2.1
1500 nM | 0.5% | 280 nM | 19 nM | 280 nM | < 1 nM | 160 nM | 0.6% | CNc1cccc(CCOc2ccc(C[C@H](NC(=O)c3c(F)cccc3Cl)C(=O)O)cc2)n1 | 1.7
55 nM | 3.3% | 130 nM | < 4 nM | 130 nM | < 1 nM | 52 nM | 2.4% | CNc1cccc(CCOc2ccc(C[C@H](NC(=O)c3c(Cl)cncc3Cl)C(=O)O)cc2)n1 | 2.6
– | – | 510 nM | 26 nM | 620 nM | 1 nM | 84 nM | – | CNc1cccc(CCOc2ccc(C[C@H](NC(=O)c3c(Cl)cccc3Cl)C(=O)O)nc2)n1 | 6.1
170 nM | 1.1% | 230 nM | 7 nM | 230 nM | < 1 nM | 97 nM | 1% | CNc1cccc(CCOc2ccc(C[C@H](NC(=O)c3c(Cl)cccc3Cl)C(=O)O)cc2)n1 | 2.3
1500 nM | 0.5% | 380 nM | 22 nM | 370 nM | 1 nM | 57 nM | – | CNc1cccc(CCOc2ccc(C[C@H](NC(=O)c3c(C)cc(C)cc3C)C(=O)O)cc2)n1 | 6.7
7700 nM | 0.4% | 510 nM | 39 nM | 520 nM | 3 nM | 250 nM | – | CNc1cccc(CCOc2ccc(C[C@H](NC(=O)c3ccc(F)cc3C3CC3)C(=O)O)cc2)n1 | 2
7500 nM | 0.9% | 830 nM | 39 nM | 830 nM | – | 480 nM | 0.25% | CNc1cccc(CCOc2ccc(C[C@H](NC(=O)C3(C)CCCCC3)C(=O)O)cc2)n1 | 1.8
420 nM | 2.2% | 400 nM | < 23 nM | 400 nM | 1 nM | 90 nM | – | CNc1cccc(CCOc2ccc(C[C@H](NC(=O)c3c(C)cccc3C)C(=O)O)cc2)n1 | 4.5
